Laboratory results as given in ChEMBL document CHEMBL1143163, “Structures of the ligand-binding core of iGluR2 in complex with the agonists (R)- and (S)-2-amino-3-(4-hydroxy-1,2,5-thiadiazol-3-yl)propionic acid explain their unusual equipotency” (J Med Chem, 2008).

Assays:
[1] = target: Glutamate receptor ionotropic, kainate 2 (Homo sapiens, UniProt Q13002); assay: Binding affinity at iGluR6(V,C,R) receptor expressed in sf9 cells by radioligand binding assay
Glutamate receptor 2 [2] = target: T1, Glutamate receptor 2 (Homo sapiens, UniProt P42262); assay: Binding affinity at iGluR2 receptor S1S2J domain expressed in sf9 cells by radioligand binding assay
T1 sequence (P42262 whole entry, the tested form may be a part): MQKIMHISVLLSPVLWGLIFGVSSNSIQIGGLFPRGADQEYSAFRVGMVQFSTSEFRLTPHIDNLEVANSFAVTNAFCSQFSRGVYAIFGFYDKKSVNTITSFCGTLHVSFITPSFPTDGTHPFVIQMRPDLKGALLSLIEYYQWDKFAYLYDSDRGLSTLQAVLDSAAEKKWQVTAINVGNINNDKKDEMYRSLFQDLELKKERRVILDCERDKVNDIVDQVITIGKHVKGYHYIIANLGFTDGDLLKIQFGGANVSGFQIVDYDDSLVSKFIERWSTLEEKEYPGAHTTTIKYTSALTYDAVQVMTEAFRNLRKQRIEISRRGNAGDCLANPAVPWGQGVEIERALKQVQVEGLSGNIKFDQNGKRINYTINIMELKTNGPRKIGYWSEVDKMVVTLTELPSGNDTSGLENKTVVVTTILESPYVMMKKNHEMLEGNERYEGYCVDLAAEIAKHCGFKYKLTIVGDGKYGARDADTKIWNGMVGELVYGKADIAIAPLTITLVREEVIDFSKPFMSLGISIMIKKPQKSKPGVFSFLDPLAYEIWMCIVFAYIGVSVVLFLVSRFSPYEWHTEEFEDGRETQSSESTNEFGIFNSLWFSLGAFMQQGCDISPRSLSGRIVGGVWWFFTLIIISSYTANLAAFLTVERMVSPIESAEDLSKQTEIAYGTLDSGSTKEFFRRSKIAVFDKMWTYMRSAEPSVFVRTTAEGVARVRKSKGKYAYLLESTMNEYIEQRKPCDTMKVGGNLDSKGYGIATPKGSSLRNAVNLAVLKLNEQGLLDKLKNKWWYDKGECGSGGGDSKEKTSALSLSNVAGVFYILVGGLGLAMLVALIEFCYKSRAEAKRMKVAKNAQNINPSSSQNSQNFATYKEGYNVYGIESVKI

Glutamate receptor 1 = Glutamate receptor 1 (Homo sapiens, UniProt P42261); assay: Binding affinity at iGluR1o receptor expressed in sf9 cells by radioligand binding assay
Sequence of Glutamate receptor 1 (P42261 whole entry): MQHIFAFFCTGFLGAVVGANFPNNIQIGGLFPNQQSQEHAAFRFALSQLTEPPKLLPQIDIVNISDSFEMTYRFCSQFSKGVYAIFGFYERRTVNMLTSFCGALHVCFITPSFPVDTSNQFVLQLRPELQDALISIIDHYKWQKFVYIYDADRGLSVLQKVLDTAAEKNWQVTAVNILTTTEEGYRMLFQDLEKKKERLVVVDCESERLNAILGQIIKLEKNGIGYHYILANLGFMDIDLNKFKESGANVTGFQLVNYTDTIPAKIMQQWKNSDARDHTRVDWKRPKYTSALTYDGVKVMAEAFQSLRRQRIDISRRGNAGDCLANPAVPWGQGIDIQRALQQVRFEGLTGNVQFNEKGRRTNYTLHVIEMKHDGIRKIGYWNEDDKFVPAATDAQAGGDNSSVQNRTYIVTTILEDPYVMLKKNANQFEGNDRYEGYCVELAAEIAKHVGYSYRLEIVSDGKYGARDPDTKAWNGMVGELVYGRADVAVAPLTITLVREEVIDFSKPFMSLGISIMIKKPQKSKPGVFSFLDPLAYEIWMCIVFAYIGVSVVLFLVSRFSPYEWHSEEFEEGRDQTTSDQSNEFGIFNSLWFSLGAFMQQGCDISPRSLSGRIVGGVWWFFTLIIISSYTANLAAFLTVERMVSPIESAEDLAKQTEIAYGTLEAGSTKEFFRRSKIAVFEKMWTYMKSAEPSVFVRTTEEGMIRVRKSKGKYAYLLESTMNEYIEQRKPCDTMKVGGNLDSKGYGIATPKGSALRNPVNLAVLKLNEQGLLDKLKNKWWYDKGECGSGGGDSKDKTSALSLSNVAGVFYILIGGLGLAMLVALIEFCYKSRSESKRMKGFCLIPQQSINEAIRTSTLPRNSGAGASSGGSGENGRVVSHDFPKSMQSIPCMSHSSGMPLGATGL

Glutamate receptor 4 = Glutamate receptor 4 (Homo sapiens, UniProt P48058); assay: Binding affinity at iGluR4o receptor expressed in sf9 cells by radioligand binding assay
Sequence of Glutamate receptor 4 (P48058 whole entry): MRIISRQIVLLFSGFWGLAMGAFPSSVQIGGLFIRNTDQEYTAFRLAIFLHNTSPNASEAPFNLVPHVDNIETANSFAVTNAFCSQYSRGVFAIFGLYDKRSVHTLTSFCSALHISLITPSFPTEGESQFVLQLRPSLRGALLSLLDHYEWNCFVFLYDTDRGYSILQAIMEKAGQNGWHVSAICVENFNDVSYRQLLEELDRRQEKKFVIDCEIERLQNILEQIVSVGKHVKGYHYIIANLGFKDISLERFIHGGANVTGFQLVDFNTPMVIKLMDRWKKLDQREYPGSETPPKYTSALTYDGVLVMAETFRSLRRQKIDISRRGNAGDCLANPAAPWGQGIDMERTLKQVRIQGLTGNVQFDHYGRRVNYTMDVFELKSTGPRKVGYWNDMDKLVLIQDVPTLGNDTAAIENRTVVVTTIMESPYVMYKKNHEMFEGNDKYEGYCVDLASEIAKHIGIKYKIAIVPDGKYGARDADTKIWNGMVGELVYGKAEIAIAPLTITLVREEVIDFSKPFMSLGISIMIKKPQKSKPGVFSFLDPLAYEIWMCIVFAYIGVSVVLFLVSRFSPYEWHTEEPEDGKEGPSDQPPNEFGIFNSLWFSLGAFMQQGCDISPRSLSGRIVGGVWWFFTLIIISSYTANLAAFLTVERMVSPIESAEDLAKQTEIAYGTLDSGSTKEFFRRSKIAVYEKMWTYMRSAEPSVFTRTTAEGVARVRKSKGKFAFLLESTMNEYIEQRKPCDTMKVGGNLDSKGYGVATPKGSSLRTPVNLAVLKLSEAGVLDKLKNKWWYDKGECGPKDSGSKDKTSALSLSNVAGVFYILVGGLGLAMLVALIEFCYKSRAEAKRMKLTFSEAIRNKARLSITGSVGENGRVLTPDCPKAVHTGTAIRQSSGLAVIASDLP

Glutamate receptor 3 = Glutamate receptor 3 (Homo sapiens, UniProt P42263); assay: Binding affinity at iGluR3o receptor expressed in sf9 cells by radioligand binding assay
Sequence of Glutamate receptor 3 (P42263 whole entry): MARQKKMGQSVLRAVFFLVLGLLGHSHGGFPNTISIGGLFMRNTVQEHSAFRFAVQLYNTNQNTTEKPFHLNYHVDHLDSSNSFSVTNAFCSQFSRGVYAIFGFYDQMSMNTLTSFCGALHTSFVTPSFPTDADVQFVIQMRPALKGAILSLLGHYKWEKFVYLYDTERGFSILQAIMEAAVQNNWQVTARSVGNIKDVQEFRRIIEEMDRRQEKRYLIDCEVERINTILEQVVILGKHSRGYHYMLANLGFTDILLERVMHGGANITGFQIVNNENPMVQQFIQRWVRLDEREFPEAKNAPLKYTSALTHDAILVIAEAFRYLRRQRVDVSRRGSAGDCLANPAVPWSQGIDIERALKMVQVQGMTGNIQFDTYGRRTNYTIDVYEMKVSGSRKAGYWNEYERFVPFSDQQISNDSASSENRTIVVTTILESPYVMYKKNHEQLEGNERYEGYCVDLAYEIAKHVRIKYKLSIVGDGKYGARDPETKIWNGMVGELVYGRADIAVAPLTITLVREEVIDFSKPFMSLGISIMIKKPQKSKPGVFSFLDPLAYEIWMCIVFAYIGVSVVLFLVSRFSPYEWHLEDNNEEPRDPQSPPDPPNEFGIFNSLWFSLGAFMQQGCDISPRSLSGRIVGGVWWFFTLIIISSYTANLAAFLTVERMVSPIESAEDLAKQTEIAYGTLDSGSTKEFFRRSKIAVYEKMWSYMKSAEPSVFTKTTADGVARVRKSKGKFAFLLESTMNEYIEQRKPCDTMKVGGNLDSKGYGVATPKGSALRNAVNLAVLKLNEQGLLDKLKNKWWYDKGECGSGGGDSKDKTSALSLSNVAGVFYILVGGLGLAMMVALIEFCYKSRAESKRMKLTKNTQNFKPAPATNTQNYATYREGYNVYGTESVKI

Glutamate receptor 2 [3] = target: T1, Glutamate receptor 2; assay: Binding affinity at iGluR2o(R) receptor expressed in sf9 cells by radioligand binding assay

Sequence of Glutamate receptor ionotropic, kainate 2 (Q13002 whole entry, the tested form may be a part): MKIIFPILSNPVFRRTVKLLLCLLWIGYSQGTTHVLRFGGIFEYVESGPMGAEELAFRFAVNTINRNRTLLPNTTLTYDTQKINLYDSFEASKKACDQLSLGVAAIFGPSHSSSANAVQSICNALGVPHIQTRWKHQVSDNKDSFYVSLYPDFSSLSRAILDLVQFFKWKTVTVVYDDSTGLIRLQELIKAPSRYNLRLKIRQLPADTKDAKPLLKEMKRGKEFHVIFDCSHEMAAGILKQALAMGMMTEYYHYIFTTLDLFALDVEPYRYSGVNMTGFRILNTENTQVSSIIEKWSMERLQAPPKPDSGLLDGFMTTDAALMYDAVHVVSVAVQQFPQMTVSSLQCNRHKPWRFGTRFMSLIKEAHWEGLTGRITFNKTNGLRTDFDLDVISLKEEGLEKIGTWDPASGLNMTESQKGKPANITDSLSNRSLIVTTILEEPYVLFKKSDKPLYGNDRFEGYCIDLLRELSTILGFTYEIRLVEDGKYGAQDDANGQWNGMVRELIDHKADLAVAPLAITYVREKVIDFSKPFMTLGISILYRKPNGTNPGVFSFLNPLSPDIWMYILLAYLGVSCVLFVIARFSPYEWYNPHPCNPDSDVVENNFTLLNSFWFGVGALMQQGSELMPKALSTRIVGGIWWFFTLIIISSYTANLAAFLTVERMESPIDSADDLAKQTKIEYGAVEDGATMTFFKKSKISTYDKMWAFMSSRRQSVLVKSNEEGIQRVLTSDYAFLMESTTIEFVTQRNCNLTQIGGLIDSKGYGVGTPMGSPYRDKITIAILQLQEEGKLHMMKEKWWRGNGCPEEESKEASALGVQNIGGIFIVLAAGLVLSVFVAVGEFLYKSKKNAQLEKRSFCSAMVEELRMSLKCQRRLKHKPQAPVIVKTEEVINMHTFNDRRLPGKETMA

Compound	Ki [1] [µM]	Ki (Glutamate receptor 2 [2]) [µM]	Ki (Glutamate receptor 1) [µM]	Ki (Glutamate receptor 4) [µM]	Ki (Glutamate receptor 3) [µM]	Ki (Glutamate receptor 2 [3]) [µM]
N[C@H](Cc1ns[nH]c1=O)C(=O)O	> 1000	0.531	0.15	1.05	1.07	0.234
N[C@@H](Cc1nsnc1O)C(=O)O	> 100	0.323	0.185	0.182	0.16	0.273
